Source: US6022969A, “Compositions and methods for treating mast-cell mediated conditions” (AXYS Pharmaceuticals, Inc., priority 1995, dated 2000)

target: tryptase; experiment: In vitro tryptase inhibition assay (hydrolysis of tosyl-Gly-Pro-Lys-p-nitroanilide); format: biochemical, human; settings: tosyl-Gly-Pro-Lys-p-nitroanilide 0.5 mM, pH 8.2, 1 h pre-incubation, room temperature
Description: The compounds to be assayed (approximately 1 mg) were dissolved in 200 μL dimethylsulfoxide (DMSO) and diluted 1:10 into buffer containing 50 millimolar (mM) Tris-HCl (pH 8.2), 100 mM sodium chloride, and 0.05% polyoxyethylenesorbitan monolaurate (Tween-20®, available from Sigma, St. Louis, Mo.). Seven additional threefold dilutions were made from the initial dilution into the same buffer supplemented with 10% DMSO. Aliquots (50 microliters, μL) from each of the eight dilutions in the series were transferred to individual wells in a 96-well U-bottom microtiter plate. 25 μL of a stock solution of tryptase was added to each well and the samples were mixed and incubated for one hour at room temperature (tryptase was purified from human lung and skin tissue preparations, HMC-1 (human mast cell line) and also obtained from commercial sources (ICN Biomedicals, Irvine, Calif.; Athens Research & Technology, Athens, Ga.)). […] The tryptase solution was prepared by placing 60 μg/mL of tryptase into solution with 10 mM MES (2-[N-Morpholino]ethane sulfonic acid) containing 2 mM CaCl2, 20% glycerol and 50 μg/mL heparin. The enzyme reaction was initiated with the addition of the synthetic tripeptide substrate, tosyl-Gly-Pro-Lys-p-nitroanilide (available from Sigma, 25 μL; 0.5 mM final concentration).
However, Ki ' varies with the enzyme concentration used in the enzyme assay. […] The y-intercept of a replot of IC50 (ordinate) versus tryptase concentration (abscissa) produces a value for Ki '.
The inhibition constants (Ki ', micromolar (μM)) were determined for the compounds of the present invention.

Ki | Molecule
0.47 nM | N=C(N)Nc1ccc(CC(=O)N2CCN(C(=O)O[C@H]3CCC[C@@H](OC(=O)N4CCN(C(=O)Cc5ccc(NC(=N)N)cc5)CC4)CCC3)CC2)cc1 [Compound 10, cis-1,5-cyclooctylene bis[4-(4-guanidinophenylacetyl)-1-piperazinecarboxylate]]
1450 nM | NC[C@H]1CC[C@H](CNC(=O)OC2CCN(C(=O)O[C@H]3CCC[C@@H](OC(=O)N4CCC(OC(=O)NC[C@H]5CC[C@H](CN)CC5)CC4)CCC3)CC2)CC1 [Compound 43, cis-1,5-cyclooctylene bis[4-(trans-4-aminomethylcyclohexylmethylaminoformyloxy)-1-piperidinecarboxylate]]
3.8 nM | N=C(N)Nc1ccc(CNC(=O)N2CCN(C(=O)O[C@H]3CCC[C@@H](OC(=O)N4CCN(C(=O)NCCCCN)CC4)CCC3)CC2)cc1 [Compound 51, cis-5-[4-(4-aminobutylcarbamoyl)piperazin-1-ylformyloxy]cyclooctyl 4-(4-guanidinobenzylcarbamoyl)-1-piperazinecarboxylate]
1.5 nM | NCCc1ccc(CC(=O)N2CCN(C(=O)O[C@H]3CCC[C@@H](OC(=O)N4CCN(C(=O)Cc5ccc(CCN)cc5)CC4)CCC3)CC2)cc1 [Compound 16]
0.13 nM | NCc1ccc(CNC(=O)N2CCN(C(=O)O[C@H]3CCC[C@@H](OC(=O)N4CCN(C(=O)NCc5ccc(CN)cc5)CC4)CCC3)CC2)cc1 [Compound 13, cis-1,5-cyclooctylene bis[4-(4-aminomethylbenzylcarbamoyl)-1-piperazinecarboxylate]]
3.4 nM | N=C(N)Nc1ccc(CNC(=O)N2CCN(C(=O)OC[C@H]3CC[C@@H](COC(=O)N4CCN(C(=O)NCc5ccc(NC(=N)N)cc5)CC4)CC3)CC2)cc1 [Compound 49, cis-1,4-cyclohexylenedimethylene bis[4-(4-guanidinobenzylcarbamoyl)-1-piperazinecarboxylate]]
3.8 nM | N=C(N)Nc1ccc(CNC(=O)N2CCN(C(=O)OC3COC4C(OC(=O)N5CCN(C(=O)NCc6ccc(NC(=N)N)cc6)CC5)COC34)CC2)cc1 (stereo not drawn) [Compound 29, cis-2,6-(4,8-dioxabicyclo[3.3.0]octylene)bis[4-(4-guanidinobenzylcarbamoyl)-1-piperazinecarboxylate]]
2 nM | N=C(N)Nc1ccc(CNC(=O)CNC(=O)O[C@H]2CCC[C@@H](OC(=O)NCC(=O)NCc3ccc(NC(=N)N)cc3)CCC2)cc1 [Compound 2, cis-1,5-Cyclooctylene bis(4-guanidinobenzylcarbamoylmethylaminocarboxylate)]
750 nM | NCCOCCNC(=O)N1CCN(C(=O)O[C@H]2CCC[C@@H](OC(=O)N3CCN(C(=O)NCCOCCN)CC3)CCC2)CC1 [Compound 38, cis-1,5-cyclooctylene bis{4-[2-(2-aminoethoxy)ethylcarbamoyl]-1-piperazinecarboxylate}]
8 nM | N=C(N)c1ccc(C(=O)NCC2CCN(C(=O)O[C@H]3CCC[C@@H](OC(=O)N4CCC(CNC(=O)c5ccc(C(=N)N)cc5)CC4)CCC3)CC2)cc1 [Compound 44, cis-1,5-cyclooctylene bis[4-(4-amidinobenzoylaminomethyl)-1-piperidinecarboxylate]]
8.7 nM | N=C(N)c1ccc(CNC(=O)N2CCN(C(=O)O[C@H]3CCC[C@@H](OC(=O)N4CCN(C(=O)NCc5ccc(C(=N)N)cc5)CC4)CCC3)CC2)cc1 [Compound 28, cis-1,5-cyclooctylene bis[4-(4-amidinobenzylcarbamoyl)-1-piperazinecarboxylate}]
508 nM | NCCCCNC(=O)N1CCN(C(=O)O[C@H]2CCC[C@@H](OC(=O)N3CCN(C(=O)NCCCCN)CC3)CCC2)CC1 [Compound 37, cis-1,5-cyclooctylene bis[4-(4-aminobutylcarbamoyl)-1-piperazinecarboxylate]]
119 nM | NCC1CCN(C(=O)NCC2CCN(C(=O)OC[C@H]3CC[C@H](COC(=O)N4CCC(CNC(=O)N5CCC(CN)CC5)CC4)CC3)CC2)CC1 [Compound 23, trans-1,4-cyclohexylenedimethylene bis{4-[4(aminomethyl)piperid-1-ylcarbonylaminomethyl]-1-piperidinecarboxylate}]
64 nM | NC[C@H]1CC[C@H](CNC(=O)N2CCN(C(=O)OC[C@H]3CC[C@H](COC(=O)N4CCN(C(=O)NC[C@H]5CC[C@H](CN)CC5)CC4)CC3)CC2)CC1 [Compound 42, trans-1,4-cyclohexylenedimethylene bis[4-(trans-4-aminomethylcyclohexylmethylcarbamoyl)-1-piperazinecarboxylate]]
0.16 nM | N=C(N)c1ccc(CC(=O)N2CCN(C(=O)O[C@H]3CCC[C@@H](OC(=O)N4CCN(C(=O)Cc5ccc(C(=N)N)cc5)CC4)CCC3)CC2)cc1 [Compound 24, cis-1,5-cyclooctylene bis[4-(4-amidinophenylacetyl)-1-piperazinecarboxylate)]
2 nM | N=C(N)N1CCC(CCC(=O)N2CCN(C(=O)O[C@H]3CCC[C@@H](OC(=O)N4CCN(C(=O)CCC5CCN(C(=N)N)CC5)CC4)CCC3)CC2)CC1 [Compound 5, cis-1,5-cyclooctylene bis{4-[3-(1-amidinopiperid-4-yl)propionoyl]-1-piperazinecarboxylate}]
614 nM | N=C(N)N1CCC(CNC(=O)N2CCN(C(=O)O[C@H]3CCC[C@@H](OC(=O)N4CCN(C(=O)NCC5CCN(C(=N)N)CC5)CC4)CCC3)CC2)CC1 [Compound 27, cis-1,5-cyclooctylene bis[4-(1-amidinopiperid-4-ylmethylcarbamoyl)-1-piperazinecarboxylate]]
772 nM | N=C(N)Nc1ccc(CNC(=O)N2CCN(C(=O)C3CCCCC3C(=O)N3CCN(C(=O)NCc4ccc(NC(=N)N)cc4)CC3)CC2)cc1 (centres unmarked) [Compound 46, 1,2-cyclohexylene bis[4-(4-guanidinobenzylcarbamoyl)-1-piperazinecarboxadehyde]]
30 nM | N=C(N)N1CCC(CCNC(=O)N2CCN(C(=O)O[C@H]3CCC[C@@H](OC(=O)N4CCN(C(=O)NCCC5CCN(C(=N)N)CC5)CC4)CCC3)CC2)CC1 [Compound 8, cis-1,5-cyclooctylene bis{4-[2-(1-amidinopiperid-4-yl)ethylcarbamoyl]-1-piperazinecarboxylate}]
1300 nM | NCCc1ccc(CNC(=O)N2CCN(C(=O)O[C@H]3CCC[C@@H](OC(=O)N4CCN(C(=O)NCc5ccc(CCN)cc5)CC4)CCC3)CC2)cc1 [Compound 14, cis-1,5-cyclooctylene bis{4-[4-(2-aminoethyl)benzylcarbamoyl]-1-piperazinecarboxylate]]
20 nM | N=C(N)Nc1ccc(CNC(=O)N2CCN(C(=O)O[C@H]3CCC[C@@H](OC(=O)N4CCN(C(=O)NCCCCCCN)CC4)CCC3)CC2)cc1 [Compound 54, cis-5-[4-(6-aminohexylcarbamoyl)piperazin-1-ylformyloxy]cyclooctyl 4-(4-guanidinobenzylcarbamoyl)-1-piperazinecarboxylate]
4 nM | N=C(N)Nc1ccc(CNC(=O)CNC(=O)OC[C@H]2CC[C@H](COC(=O)NCC(=O)NCc3ccc(NC(=N)N)cc3)CC2)cc1 [Compound 1, trans-1,4-Cyclohexylenedimethylene bis(4-guanidinobenzylcarbamoylmethylaminocarboxylate)]
493 nM | NC[C@H]1CC[C@H](C(=O)N2CCN(C(=O)O[C@H]3CCC[C@@H](OC(=O)N4CCN(C(=O)[C@H]5CC[C@H](CN)CC5)CC4)CCC3)CC2)CC1 [Compound 9, cis-1,5-cyclooctylene bis[4-(trans-4-aminomethylcyclohexylcarbonyl)-1-piperazinecarboxylate]]
60.9 nM | trans-1,4-cyclohexylene bis[4-(4-guanidinobenzylcarbamoyl)-1-piperazinecarboxaldehyde] [Compound 21]
440 nM | N=C(N)c1ccc(CCNC(=O)N2CCN(C(=O)O[C@H]3CCC[C@@H](OC(=O)N4CCN(C(=O)NCCc5ccc(C(=N)N)cc5)CC4)CCC3)CC2)cc1 [Compound 33, cis-1,5-cyclooctylene bis{4-[2-(4-amidinophenyl)ethylcarbamoyl)-1-piperazinecarboxylate}]
207 nM | N=C(N)Nc1ccc(CCC(=O)N2CCN(C(=O)O[C@H]3CCC[C@@H](OC(=O)N4CCN(C(=O)CCc5ccc(NC(=N)N)cc5)CC4)CCC3)CC2)cc1 [Compound 11, cis-1,5-cyclooctylene bis[4-[3-(4-guanidinophenyl)propionyl]-1-piperazinecarboxylate}]
260 nM | NC[C@H]1CC[C@H](CNC(=O)N2CCCN(C(=O)O[C@H]3CCC[C@@H](OC(=O)N4CCCN(C(=O)NC[C@H]5CC[C@H](CN)CC5)CC4)CCC3)CC2)CC1 [Compound 12, cis-1,5-cyclooctylene bis[4-(trans-4-aminomethylcyclohexylmethylcarbamoyl)-1-(perhydro-7H-1,4-diazepine)carboxylate]]
734 nM | NCC1CCN(C(=O)NCCCCNC(=O)O[C@H]2CCC[C@@H](OC(=O)NCCCCNC(=O)N3CCC(CN)CC3)CCC2)CC1 [Compound 25, cis-1,5-cyclooctylene bis{4-[4-(aminomethyl)piperid-1-ylcarbonylamino]butylaminocarboxylate}]
8 nM | N=C(N)Nc1ccc(CNC(=O)N2CCN(C(=O)OCC3C4C=CC(CC4)C3COC(=O)N3CCN(C(=O)NCc4ccc(NC(=N)N)cc4)CC3)CC2)cc1 (stereo not drawn) [Compound 30, trans-2,3-bicyclo[2.2.2]oct-5-enylenedimethylene bis[4-(4-guanidinobenzylcarbamoyl)-1-piperazinecarboxylate]]
